Reference: patent US12540166B2, “BNIP3 peptides for treatment of reperfusion injury” (Bimyo GmbH, priority 2019, dated 2026)

Key:
[1] = tested on: infarct size in STEMI patients; conditions: cited from earlier work; for infarct size / effect in patients: clinical trials, administered prior to PPCI
I/R injury = conditions: in vivo; cited from earlier work
[2] = tested on: cancer therapy cardiotoxicity; conditions: in vivo; cited from earlier work
[3] = tested on: BNIP3 and BAX interaction with mitochondria; experiment: Mechanistic read-outs in the area at risk of mouse hearts after vessel occlusion and reperfusion; format: in vivo, mice; conditions: for BNIP3 (and BAX) translocation to / interaction with mitochondria: after 10 min of reperfusion, peptide 5 min before reperfusion
Protocol: (§1) In vivo myocardial infarction model in mice. […] Sodium chloride injection (50 μl) served as control treatment.
Immunoblotting. Tissue and human CM cells were lysed in a RIPS buffer (50 mM Tris-HCl, 150 mM NaCl, 0.5 mM EDTA, 1% NP-40 and protease- and phosphatase inhibitor, pH 7.4). Isolated mitochondria were lysed in a Mito-lyse buffer (200 mM sucrose, 10 mM HEPES, 1 mM EGTA, 1% Triton-X100 and protease- and phosphatase inhibitor, pH 7.4). The lysates were cleared by centrifugation (20.000×g, 15 min, 4° C.). Protein concentrations in supernatant were measured using DC Protein Assay (Bio-Rad). Samples were diluted into 4×LDS sample buffer and 10× Reducing Agent (Invitrogen) and were prepared for SDS-PAGE by heating to 95° C. for 5 min. Equivalent amounts of protein were separated using 4-12% Bis-Tris Gels (Invitrogen), transferred on to nitrocellulose and immunoblotted with primary antibodies. The used secondary antibodies were horseradish peroxidise conjugated goat anti-mouse or anti-rabbit IgG (Invitrogen). Immunoblotting was detected by ECL (Thermo Scientific) and imaged on an Imager 600 (Amersham).
Immunoprecipitation. Immunoprecipitation were performed using protein G-coupled Dynabeads (Invitrogen). 500 μg lysed proteins were incubated with 2 μg antibody over night at 4° C. with shaking in PBS buffer containing 1 mM DTT, 0.005% Brij35 and protease-phosphatase inhibitors. Next day 20 μl Dynabeads were added and the solution was incubated again for 1 h. The precipitated immune complex was washed 2 times and then resuspended in eluation buffer containing LDS-Sample Buffer (1:4) und Reducing Agent (1:10) (Invitrogen) in PBS and heated for 5 min at 95° C. After removal of the Dynabeads the Eluate were analysed via immunoblotting.
Caspase-3 activity was measured using the Caspase 3 Assay Kit from Abcam (#ab39401). Murine hearts were harvested after 30 min ischemia and 4 h reperfusion, area at risk was isolated, lysed in containing buffer and the assay was performed according to manufacturer's instructions.
(§2) Swelling Assay. Mitochondrial swelling was measured by light scattering at 540 nm in a microplate absorbance reader FLUOstar Omega (BMG Labtech) at RT. The final assay volume was 200 μl, containing mitochondria at 0.5 mg/ml in buffer containing 250 mM sucrose, 10 mM HEPES, […], pH 7.4.

HL-1 cells = experiment: Doxorubicin-induced mitochondrial swelling in HL-1 cells (OD540); format: cell-based; conditions: 5 μM Doxorubicin given simultaneously, 30 min
Protocol: HL-1 cells were cultured in Claycomb medium as per manufacturer's protocol. The cells were treated with 5 μM Doxorubicin and 2 nmol TAT-BNIP3-8B for 30 min.
as §2

[4] = 37° C.
Protocol: FIG. 8. TAT-BNIP3-8B pharmacokinetics. Fluorescence labelled BNIP3-8B was incubated in human serum (A), plasma (B), and whole blood (C) at 37° C. for indicated time durations and monitored by Western blot. Proteinase K treatment served as control.

[5] = tested on: transient middle cerebral artery occlusion (tMCAO); experiment: Mouse model of focal cerebral reperfusion (tMCAO), brain infarct size; format: in vivo; conditions: 24 h of reperfusion after 30-min tMCAO, vs vehicle
Protocol: We subjected mice to 24 h of reperfusion after a 30-min transient middle cerebral artery occlusion (tMCAO). BNIP3-8B treatment immediately post tMCAO markedly reduces the infarct size by 52% (FIG. 12).

[6] = tested on: isolated adult cardiomyocytes; conditions: survival after 24 h
Protocol: FIG. 7. A Uptake of fluorescence labelled TAT-BNIP3-8B in different organs after 5 min of reperfusion post vessel occlusion. TAT-BNIP3-8B was given 5 min before starting reperfusion. B Survival of isolated adult cardiomyocytes treated with TAT-BNIP3-8B and TAT-BNIP3-8C control peptide after 24 h.

[7] = tested on: human ventricular cardiomyocytes derived from human induced pluripotent stem cells (humanCM); experiment: In vitro reoxygenation after hypoxia in humanCM; format: cell-based; conditions: 2 h of reoxygenation after hypoxia; for mitochondrial inner membrane depolarization / loss of mitochondrial inner membrane potential: JC-1
Protocol: Cell culture. Human iPSC-derived ventricular cardiomyocytes (humanCM) were obtained from (axol) and were cultivated according to the manufacture's specification.
To simulate vessel occlusion, cells were incubated in buffer (113 mM NaCl, 4.7 mM KCl, 12 mM HEPES, 1.2 mM MgSO4, 30 mM taurine, 1.3 mM CaCl2), pH 7.4) under 1% O2, 37° C. Reoxygenation was performed in buffer supplemented with 5.5 mM glucose under 21% O2, 37° C.
JC-1 Assay. To analyze mitochondrial inner membrane potential in humanCM cells were stained with 5′,6,6′-tetrachloro-1,1′,3,3′-tetraethylbenzimidazolylcarbocyanin Iodid (JC-1). Cells were incubated with 6 μM JC-1 in media at 37° C. for 30 min. After washing cells with PBS buffer at 37° C. they were fixed with 4% PFA for 15 min at room temperature. DAPI staining was performed and cells were analysed using EVOS FL (life Technologies).

[8] = tested on: myocardial infarction model in mice; experiment: In vivo myocardial infarction (ischemia/reperfusion) model in mice, infarct size; conditions: 24 h reperfusion; for effect on infarct size (in words): given 5 min before reperfusion
Protocol: as §1
Infarct size measurement. For analysis of infarct size, mice were euthanized after 24 hours of reperfusion; hearts were excised and perfused with PBS over 5 min. After perfusion, the LCA was re-ligated in the same location as explicated before. Evans blue dye (1 ml of a 1% solution) was injected into the aorta and coronary arteries for delineation of the ischemic AAR from the non-ischemic zone. The tissue was wrapped in a clear food wrap and stored for one hour in a −20° C. freezer. The heart was then serially sectioned perpendicularly to the long axis in 1 mm slices, and each slice was weighed. The sections were incubated in 1% TTC for 5 min at 37° C. for demarcation of the viable and non-viable myocardium within the risk zone. Infarction, AAR, and non-ischemic left ventricle were assessed with computer-assisted planimetry by an observer blinded to sample identity. The size of the myocardial infarction was expressed as a percentage of the AAR.

[9] = after reperfusion post vessel occlusion, peptide given 5 min before reperfusion
Protocol: In vivo myocardial infarction model in mice. Wild-type and Bnip3 deficient (Bnip3^−/−) mice were anesthetized by i.p. injection of ketamine (100 mg/kg) and xylazin (10 mg/kg) and intubated. Mechanical ventilation parameters were set to a tidal volume of 2.1 to 2.5 ml and a respiratory rate of 140 breaths per min using a mouse mini-ventilator. Deep anaesthesia was maintained by adding 2 vol % isoflurane to the ventilation gas. The chest was opened through a lateral thoracotomy (1 cm left lateral incision between the 3rd and 4th ribs). A 6-0 prolene suture was placed around the left coronary artery (LCA) and a piece of soft silicon tubing placed over the artery. Coronary occlusion was achieved by tightening and tying the suture. After 30 min of occlusion, the silicon tubing was removed and the suture left in place. For longer reperfusion times the chest were closed using 4-0 prolene. 2, 6 and 9 nmol (in 50 μl 0.9% sodium chloride) BNIP3 were injected into the left ventricular cavity 5 min before vessel occlusion. Peptides with 20 amino acids (2 nmol/50 μl) and peptides with 8 amino acids (8 nmol/50 μl) in NaCl were injected 5 min before reperfusion. Sodium chloride injection (50 μl) served as control treatment.
Peptides. […] For uptake and binding studies, peptides were labelled with a fluorophore.

[10] = tested on: myocardial infarction model in swine; experiment: In vivo myocardial infarction model in pigs, infarct size; conditions: 60 min LAD occlusion, 4 h of reperfusion, IV 5 min before reperfusion, vs vehicle
Excerpt: In vivo myocardial infarction model in pigs. Following induction of anesthesia, a small incision was made over the femoral artery and vein; the vessels were isolated. A small opening was made in the artery and a sheath was introduced. In addition, a sheath was placed in the femoral vein or other appropriate vein to allow for emergency drug administration if necessary. A blood sample was taken prior to administration of heparin and was used to establish a baseline Activated Clotting Time (ACT) which was recorded. Subsequently, as directed by the surgeon, heparin (250 to 350 IU/kg) was administered as needed to achieve and maintain an ACT that is two times the level of the baseline ACT. Following the initial bolus of heparin ACT was recorded again and monitored at least every 60 minutes thereafter, until completion of surgery.
An appropriate guide catheter was advanced into the ostium of the left anterior descending artery (LAD) using visual guidance provided by fluoroscopy. Non-ionic contrast was used for all procedures. A balloon catheter was introduced by advancing it through the guide catheter to the left anterior descending (LAD) coronary artery. The balloon was advanced into the coronary arteries through a guide catheter to a suitable place above the 1st diagonal branch of the LAD. […] Incidence supportive drugs and defibrillation were recorded in the study record. […]

BNIP3 = BNIP3 (Mus musculus, UniProt O55003); experiment: BNIP3/TAT-BNIP3-8B overlay assay and docking simulation; format: binding; conditions: data not shown
Protocol: Docking Simulation. Experiments were performed using Autodock Vina^52 and HADDOCK^53. The structure of BAX (pdb-ID: 4S0O) was taken from the Protein Data Bank, whereas the structure of BNIP3 and peptide BNIP3-8B were modelled using Modeller9.15^47. The template structures correspond to PDB codes 2k7w and 2ka1. The created model was energy minimized using NAMD2.9^54 and the CHARMM36 force field.

## CC(C)CCC[C@@H](C)[C@H]1CC[C@H]2[C@@H]3CC/C(=N\O)[C@](C)(CCCO)[C@H]3CC[C@]12C [TRO40303]
[1]
  infarct size / effect in patients: failed to reduce infarct size
[1]; compared with the placebo arm
  adverse events in patients: more adverse events
I/R injury
  infarct size in animal / pre-clinical studies: reduce infarct size

## COc1ccccc1OCCNCC(O)COc1cccc2[nH]c3ccccc3c12 (stereo not shown) [carvedilol]
[2]
  prevention of cardiotoxicity / cardiomyopathy in cancer patients: failed to show a benefit

## TAT-BNIP3-8B: TAT PTD covalently attached to WVELHFFN (BNIP3 amino acids 13-20 with Ser-19 to Phe-19 substitution, SEQ ID NO: 8)
[3]; 5 min of reperfusion, fluorescence-labelled peptide
  interaction with endogenous BNIP3 / BAX (co-immunoprecipitation): endogenous BNIP3 and BAX mono, homo- and heterodimers co-immunoprecipitated
[3]; 10 min to 4 h of reperfusion
  down-stream cell death machinery (mitochondrial swelling, BAX activation, cytochrome c release, caspase-3 activity): inhibition of the down-stream cell death machinery
[3]
  BNIP3 (and BAX) translocation to / interaction with mitochondria: prevents BNIP3 and BAX translocation to the mitochondria
[3]; cytosol of area at risk, 10 minutes reperfusion, blue native-PAGE
  BNIP3/BAX oligomerization: strongly inhibited
HL-1 cells
  mitochondrial swelling (OD540): prevents mitochondrial swelling
[4]
  half-life in human serum, plasma and whole blood: enables its in vivo inhibitory capacity
[5]
  reduction of cerebral infarct size: 52%
[6]
  toxicity in cardiomyocytes: no signs of overt toxicity
[7]
  apoptotic and necrotic cell death: markedly inhibits necrotic and apoptotic cell death
  mitochondrial inner membrane depolarization / loss of mitochondrial inner membrane potential: markedly inhibits
[8]; wild-type mice, peptide into left ventricle 5 min before reperfusion, vs vehicle
  reduction of infarct size: up to 40%
[9]
  uptake / tissue distribution: taken up by the heart, spleen and liver and is present in the plasma
[10]
  reduction of myocardial infarct size: 56%
BNIP3
  binding to BNIP3: binds to BNIP3

## TAT-BNIP3-8C: control peptide: BNIP3-8B with Phe-18 to Ala-18 and His-17 to Ala-17 substitutions (WVELAASN)
[3]
  BNIP3 (and BAX) translocation to / interaction with mitochondria: does not
[7]
  apoptotic and necrotic cell death: not effective
  mitochondrial inner membrane depolarization / loss of mitochondrial inner membrane potential: not effective
[8]; wild-type mice
  effect on infarct size (in words): does not appreciably affect the infarct size

## TAT-BNIP3-20C: control peptide: TAT PTD attached to amino acids 42-61 of BNIP3 (LDAQHESGRSSSKSSHCDSP)
[3]
  BNIP3 (and BAX) translocation to / interaction with mitochondria: does not
[7]
  apoptotic and necrotic cell death: not effective
  translocation of human BNIP3 to mitochondria: not effective
  mitochondrial inner membrane depolarization / loss of mitochondrial inner membrane potential: not effective
[8]; wild-type mice
  effect on infarct size (in words): not effective

## elamipretide
[1]
  infarct size / effect in patients: failed to reduce infarct size
I/R injury
  infarct size in animal / pre-clinical studies: reduce infarct size

B1: BNIP3: BNIP3 protein restituted to BNIP3 deficient mice (TAT-BNIP3 doses, FIG. 1C) (protein)
chain: MSQSGEENLQGSWVELHFSNGNGSSVPASVSIYNGDMEKILLDAQHESGRSSSKSSHCDSPPRSQTPQDTNRAEIDSHSFGEKNSTLSEEDYIERRREVESILKKNSDWIWDWSSRPENIPPKEFLFKHPKRTATLSMRNTSVMKKGGIFSADFLKVFLPSLLLSHLLAIGLGIYIGRRLTTSTSTF
[3]; BNIP3 deficient mouse hearts, early phase of reperfusion
  mitochondrial BAX translocation after addition of BNIP3: restored the BAX translocation
[8]; BNIP3 deficient (Bnip3−/−) mice
  infarct size after restitution of BNIP3: infarct sizes comparable to wild-type mice in a dose-dependent manner
